In paper PMC4798942 (ACS chemical biology, 2015):
Like-named read-outs stand apart in the source and are kept apart here.

What was measured:
Type in all cases: biochemical
[1] = target: T1, human CP4H1 (collagen prolyl 4-hydroxylase 1, alpha(I)2beta2 holoenzyme) (Homo sapiens, UniProt P13674); experiment: inhibition of CP4H1 activity in vitro; conditions: 100 µM compound
[2] = target: T1, human CP4H1 (collagen prolyl 4-hydroxylase 1, alpha(I)2beta2 holoenzyme); experiment: dose-response inhibition of CP4H1 hydroxylation activity
[3] = target: human PHD2 (Homo sapiens, UniProt Q9GZT9); experiment: inhibition of PHD2 activity in vitro
Sequence of human PHD2 (Q9GZT9 2-426): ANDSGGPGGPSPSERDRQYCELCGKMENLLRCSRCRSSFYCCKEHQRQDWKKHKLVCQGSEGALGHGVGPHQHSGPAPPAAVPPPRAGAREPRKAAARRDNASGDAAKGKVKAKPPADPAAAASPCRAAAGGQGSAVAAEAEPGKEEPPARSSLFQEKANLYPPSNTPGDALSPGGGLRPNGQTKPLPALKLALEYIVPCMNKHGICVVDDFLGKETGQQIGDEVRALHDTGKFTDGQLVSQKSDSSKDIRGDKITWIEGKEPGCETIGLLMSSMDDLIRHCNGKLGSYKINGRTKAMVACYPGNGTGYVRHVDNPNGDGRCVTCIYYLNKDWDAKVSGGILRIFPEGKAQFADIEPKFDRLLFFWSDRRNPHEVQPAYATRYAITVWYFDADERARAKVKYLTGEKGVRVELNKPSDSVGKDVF

[4] = target: T1, human CP4H1 (collagen prolyl 4-hydroxylase 1, alpha(I)2beta2 holoenzyme); experiment: Lineweaver-Burk analysis of CP4H1 activity
[5] = Fe(II) and AKG dependent reaction

T1 sequence (P13674 18-534): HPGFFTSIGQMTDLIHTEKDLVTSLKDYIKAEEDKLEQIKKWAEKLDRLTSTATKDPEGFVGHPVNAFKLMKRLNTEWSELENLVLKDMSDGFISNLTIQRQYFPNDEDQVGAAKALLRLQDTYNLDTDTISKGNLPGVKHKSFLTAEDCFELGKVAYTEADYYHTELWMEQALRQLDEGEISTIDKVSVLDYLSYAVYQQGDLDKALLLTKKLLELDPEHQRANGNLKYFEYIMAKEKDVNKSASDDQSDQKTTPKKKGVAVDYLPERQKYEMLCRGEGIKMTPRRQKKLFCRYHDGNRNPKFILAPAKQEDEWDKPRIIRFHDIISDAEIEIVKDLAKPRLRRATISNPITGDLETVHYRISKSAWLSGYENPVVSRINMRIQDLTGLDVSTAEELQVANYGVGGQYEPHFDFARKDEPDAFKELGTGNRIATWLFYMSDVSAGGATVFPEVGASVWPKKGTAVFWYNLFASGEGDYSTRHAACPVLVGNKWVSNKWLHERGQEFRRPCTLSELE
T1 sequence (P07237 18-508 partner): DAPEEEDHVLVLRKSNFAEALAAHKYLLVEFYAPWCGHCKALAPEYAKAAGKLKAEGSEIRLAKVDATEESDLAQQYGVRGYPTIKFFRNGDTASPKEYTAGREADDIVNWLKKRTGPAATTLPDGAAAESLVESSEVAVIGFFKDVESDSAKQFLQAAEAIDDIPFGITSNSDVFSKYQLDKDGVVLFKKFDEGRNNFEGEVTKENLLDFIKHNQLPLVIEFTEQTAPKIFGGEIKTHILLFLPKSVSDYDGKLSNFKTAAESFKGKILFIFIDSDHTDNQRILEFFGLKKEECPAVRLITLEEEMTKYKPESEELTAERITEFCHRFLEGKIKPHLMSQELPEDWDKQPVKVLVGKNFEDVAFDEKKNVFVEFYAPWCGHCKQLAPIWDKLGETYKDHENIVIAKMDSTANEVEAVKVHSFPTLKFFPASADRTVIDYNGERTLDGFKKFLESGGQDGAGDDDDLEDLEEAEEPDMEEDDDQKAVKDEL

Q: For `CCOC(=O)c1ccc(-c2ncc(C(=O)OCC)s2)nc1` [diethyl pythiDC], which “inhibition at 100 μM” value [1] is on record?
A: No inhibition of catalysis by CP4H1 or PHD2 was observed in vitro with these diethyl esters

Q: How did the IC50 [2, 5] turn out when `O=C(O)c1ccc(-c2ncc(C(=O)O)[nH]2)nc1` [pyimDC] was run?
A: 2.6 ± 0.1 µM

Q: With `O=C(O)c1ccc(-c2ncc(C(=O)O)o2)nc1` [pyoxDC] as the molecule, how does the IC50 [2, 5] read?
A: 33 ± 8 µM

Q: Which results are given for `O=C(O)c1ccc(-c2ncc(C(=O)O)s2)nc1` [pythiDC, 2 (5-carboxythiazol-2-yl)pyridine-5-carboxylic acid]?
A: inhibition [3]: inhibit human PHD2 only weakly (Figure S4), with pythiDC displaying especially low potency; Ki [4]: 0.39 ± 0.04 µM; IC50 [2]: 4 ± 0.2 µM
